In publication PMC11272598, “RG7774 (Vicasinabin), an orally bioavailable cannabinoid receptor 2 (CB2R) agonist, decreases retinal vascular permeability, leukocyte adhesion, and ocular inflammation in animal models” (Frontiers in Pharmacology, 2024):

Key:
[1] = tested on: retinal microglia migration; assay: Laser-induced CNV in rats, microglia volume on laser lesions; type: in vivo, Brown Norway rats
Procedure: Right eyes were transferred to a petri dish containing 10% neutral-buffered formalin (NBF) and fixed for 5 min at RT. Eyes were prepared in PBS^−/– by removing the anterior segments and carefully separating the retinas from the posterior segments (retinal pigment epithelium/choroid and sclera). Dissected retinas were cut into petals, transferred to 2 × 24 well plates containing fresh 10% NBF solution, and fixed for 2 h at RT. […]
Microglia migration towards laser-injured retinal regions was quantified from 3D RGB-images (CZI-files) of the fluorescently labeled retinal samples, a workflow and image analytics tool was applied that allowed a semi-automated volumetric quantitation of Iba1-positive pixel per image frame integrated over the Z-dimension. […] Subsequently, TIFF images were analyzed using IDL (Interactive Data Language, Version 6.4) in combination with Excel 2010 to compute RGB-channel-dependent threshold images (pdf-files) with a histogram between 1–255 A.U. pixel intensity. […] The sum of pixels displaying the determined threshold intensity or higher was calculated and finally integrated over the Z-dimension of the 3D image.

Human MAGL = target: T1, Human MAGL (Homo sapiens, UniProt Q99685); assay: Human MAGL assay (U937 cell extracts); type: biochemical; conditions: RG7774 10 µM; read-out: Mean ± SEM % inhibition of control, Human MAGL
T1 construct: Mouse brain or human U937 cell extracts (ATCC, Manassas, VI, USA); host or cells: U937 cells, 100,000 g supernatant
Procedure: The final supernatant was incubated with [^3H]-2-OG (10 µM) (ARC, MO, USA) at 37°C for 30 min as previously described, and reactions were stopped with a 2:1 (v/v) mixture of chloroform/methanol. [^3H]-glycerol release in the aqueous phase was measured by scintillation counting. […] Human supernatant (100 µg) was preincubated for 15 min at RT with 8 different concentrations of RG7774 (0.1-500 µM) in the incubation medium.

[2] = Plasma PK profile in rats; type: in vivo, Wistar rats; conditions: mean (% CV)
Procedure: The plasma PK profile of RG7774 was assessed in adult male C57BL/6J mice and female Wistar rats (Charles River, Cologne, Germany) housed in a controlled environment (temperature, humidity, and 12 h light/dark cycle) with unrestricted access to food and water. The ocular PK profile of RG7774 was assessed in adult female […] rats (Charles River, Mattawan, MI, United States) housed in a controlled environment (21°C–22°C temperature, 40%–60%, humidity, and 12 h light/dark cycle) with unrestricted access to food and water and conducted according to local regulations by EyeCRO (Ann Arbor, MI, United States).
In the first study (animal permission #1857), mice received RG7774 as an intravenous (IV) bolus at 1 mg/kg (n = 6) or as an oral (PO) dose at 3 mg/kg (n = 5). In the second study (animal permission #2373), rats received RG7774 as an IV bolus at 10 mg/kg (n = 4) or via gavage at 30 mg/kg (n = 3). Blood samples were collected 0.1, 1, 3, 10, and 24 h post-dose under deep anesthesia with 3%–5% isoflurane in 100% O2. Samples were collected sublingually from mice, from the tail vein in rats or via heart puncture (terminal) into anticoagulant-coated polypropylene tubes and placed on ice. Plasma was prepared within 30 min of collection by centrifugation at 3,000 g for 5 min at 4°C and was immediately frozen. RG7774 concentrations in plasma were determined using LC-MS/MS. PK parameters were estimated by non-compartmental analysis of plasma data using Phoenix WinNonlin software (Certara, Princeton, NJ, United States).

[3] = female, Wistar, rat, plasma, IV 10 mg/kg
[4] = female, Wistar, rat, plasma, PO 30 mg/kg

T1 sequence (Q99685 whole entry): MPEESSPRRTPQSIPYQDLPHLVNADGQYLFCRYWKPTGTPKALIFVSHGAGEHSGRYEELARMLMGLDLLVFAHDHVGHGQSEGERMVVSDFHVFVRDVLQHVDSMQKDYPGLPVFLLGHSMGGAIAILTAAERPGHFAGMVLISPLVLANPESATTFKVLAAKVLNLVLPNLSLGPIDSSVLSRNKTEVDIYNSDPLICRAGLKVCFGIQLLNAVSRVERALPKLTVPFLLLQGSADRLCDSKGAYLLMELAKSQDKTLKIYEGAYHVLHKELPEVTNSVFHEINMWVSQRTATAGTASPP

SMILES: Cn1nnnc1Cn1nnc2c(N3CC[C@H](O)C3)nc(C(C)(C)C)nc21 [RG7774, (S)-1-(5-tert-butyl-3-[(1-methyl-1H-tetrazol-5-yl)methyl]-3H-[1,2,3]triazolo[4,5-d]pyrimidin-7-yl)pyrrolidin-3-ol]
- reduction of microglia volumes in lasered versus non-lasered regions ([1]; 3 mg/kg oral gavage): 25%
- reduction of microglia volumes in lasered versus non-lasered regions ([1]; 10 mg/kg oral gavage): 41%
- inhibition at 10 µM (Human MAGL): -9.7%
- AUCinf/dose ([2]; IV 10 mg/kg): 6,000 (16) ng h^–1 ml^–1 (mg kg^−1) ^−1
- AUCinf/dose ([2]; PO 30 mg/kg): 4,670 (9.4) ng h^–1 ml^–1 (mg kg^−1) ^−1
- Cmax/dose ([2]; PO 30 mg/kg): 466 (13) ng ml^–1 (mg kg^–1) ^−1
- clearance [2, 3]: 2.84 mL/min/kg
- half-life [2, 3]: 2.54 h
- Vd ([2]; female, Wistar, rat, plasma, IV 10 mg/kg, read-out: Vss): 0.442 L/kg
- Tmax [2, 4]: 1.25 h
- bioavailability [2, 4]: 81.4%
- half-life [2, 4]: 3.18 h
